Experiments:
Assay type in all cases: biochemical
HpDTC1 [1] = target: T1, HpDTC1 (Calohypnum plumiforme, UniProt A0A173M1U8); experiment: GC-MS of reaction product; details: product syn-pimara-7,15-diene
T1 construct: His6-tag, pCold I, E. coli M-15

OsCPS4 = target: T2, OsCPS4 (Oryza sativa, UniProt Q0JF02); experiment: GC-MS of product after dephosphorylation; details: product syn-CDP, detected as syn-copalol after calf intestinal alkaline phosphatase
T2 construct: gene CPS4; enzyme preparation not described in main text
T2 sequence (Q0JF02 48-767): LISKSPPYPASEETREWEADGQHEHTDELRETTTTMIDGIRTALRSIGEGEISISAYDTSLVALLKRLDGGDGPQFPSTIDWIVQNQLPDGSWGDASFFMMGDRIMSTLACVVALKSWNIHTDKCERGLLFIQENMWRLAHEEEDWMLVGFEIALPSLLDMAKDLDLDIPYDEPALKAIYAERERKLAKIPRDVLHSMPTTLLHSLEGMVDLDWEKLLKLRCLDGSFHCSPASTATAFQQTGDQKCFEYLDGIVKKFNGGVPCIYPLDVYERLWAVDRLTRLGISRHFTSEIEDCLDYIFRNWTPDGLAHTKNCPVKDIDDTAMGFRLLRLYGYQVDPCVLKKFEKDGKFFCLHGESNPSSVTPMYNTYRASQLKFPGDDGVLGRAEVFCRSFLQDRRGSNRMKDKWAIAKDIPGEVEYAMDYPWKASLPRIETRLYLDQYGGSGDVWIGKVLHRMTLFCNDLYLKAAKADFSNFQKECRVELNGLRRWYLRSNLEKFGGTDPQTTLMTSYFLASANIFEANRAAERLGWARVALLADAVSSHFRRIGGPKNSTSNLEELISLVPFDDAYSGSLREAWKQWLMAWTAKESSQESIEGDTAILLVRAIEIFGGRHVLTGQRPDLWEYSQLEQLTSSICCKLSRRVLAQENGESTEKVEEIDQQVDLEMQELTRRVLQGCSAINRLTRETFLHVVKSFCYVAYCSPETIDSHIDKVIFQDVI

HpDTC1 [2] = target: T3, HpDTC1 (Calohypnum plumiforme, UniProt A0A173M1U8, D394G/D395G); experiment: GC-MS of product, co-incubation with OsCPS4; details: syn-CDP formed in situ from GGDP by OsCPS4; type A activity; product syn-pimara-7,15-diene
T3 construct: His6-tag, pCold I, E. coli M-15
T3 sequence (A0A173M1U8 entry or part of it D394G/D395G): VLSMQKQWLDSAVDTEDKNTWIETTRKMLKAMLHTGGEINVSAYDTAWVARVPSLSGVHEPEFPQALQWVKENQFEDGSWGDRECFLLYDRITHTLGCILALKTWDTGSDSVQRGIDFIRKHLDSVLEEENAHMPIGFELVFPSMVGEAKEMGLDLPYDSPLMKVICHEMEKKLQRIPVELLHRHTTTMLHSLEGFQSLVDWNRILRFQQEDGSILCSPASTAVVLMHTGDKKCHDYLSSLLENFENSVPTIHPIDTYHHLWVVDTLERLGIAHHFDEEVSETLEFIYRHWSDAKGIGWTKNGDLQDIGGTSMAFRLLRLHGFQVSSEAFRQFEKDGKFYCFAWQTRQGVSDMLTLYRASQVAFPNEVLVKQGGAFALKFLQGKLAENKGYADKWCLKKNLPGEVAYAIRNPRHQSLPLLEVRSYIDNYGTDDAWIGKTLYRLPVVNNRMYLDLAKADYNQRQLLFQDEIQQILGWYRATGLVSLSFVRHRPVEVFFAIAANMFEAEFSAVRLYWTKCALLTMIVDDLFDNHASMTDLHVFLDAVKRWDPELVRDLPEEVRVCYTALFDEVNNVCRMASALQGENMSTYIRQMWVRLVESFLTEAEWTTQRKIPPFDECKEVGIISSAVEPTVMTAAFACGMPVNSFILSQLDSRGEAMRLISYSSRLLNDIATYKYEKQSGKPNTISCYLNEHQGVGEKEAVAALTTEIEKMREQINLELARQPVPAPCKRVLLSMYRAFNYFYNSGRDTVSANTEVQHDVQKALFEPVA

T1 sequence (A0A173M1U8 entry or part of it): as the sequence (A0A173M1U8 entry or part of it D394G/D395G) above, with G309D, G310D counted along it

CC(C)=CCC/C(C)=C/CC/C(C)=C/CC/C(C)=C/COP(=O)(O)OP(=O)(O)O [GGDP]
GC-MS of reaction product (HpDTC1 [1]): used for the enzyme assay using GGDP as a substrate | GC-MS of product after dephosphorylation (OsCPS4): syn-copalol derived from syn-CDP, product of OsCPS4

C=C1CC[C@H]2C(C)(C)CCC[C@]2(C)[C@@H]1CC/C(C)=C/COP(=O)(O)OP(=O)(O)O [syn-CDP]
GC-MS of product, co-incubation with OsCPS4 (HpDTC1 [2]): Co-incubation with OsCPS4 and the type B mutant of HpDTC1 (DIGG) complemented the impaired
